Laboratory results reported in publication PMC12746157, “Light-Regulated Agonists Spatiotemporally Activating the Vitamin D Receptor Mitigate Psoriasis-like Inflammation in Mice without Inducing Hypercalcemia” (ACS Central Science, 2025).
Entries after “also recorded” stand apart in the source; their conditions may differ.

Key:
[1] = Serum total calcium measurement in mice (Arsenazo III); assay type: in vivo; details: after treatment i.p. days 2-4 (LSN2148936 0.005 mg/kg, PhotoVDRM 0.5 mg/kg), 420 or 520 nm
[2] = target: T1, VDR-LBD (Homo sapiens, UniProt P11473); assay: HDX-MS of VDR-LBD with ligand in the dark and under 365 nm light; assay type: binding
T1 construct: VDR-LBD protein stock solution was prepared in 20 mM HEPES buffer
T1 sequence (P11473 127-423 limits assumed): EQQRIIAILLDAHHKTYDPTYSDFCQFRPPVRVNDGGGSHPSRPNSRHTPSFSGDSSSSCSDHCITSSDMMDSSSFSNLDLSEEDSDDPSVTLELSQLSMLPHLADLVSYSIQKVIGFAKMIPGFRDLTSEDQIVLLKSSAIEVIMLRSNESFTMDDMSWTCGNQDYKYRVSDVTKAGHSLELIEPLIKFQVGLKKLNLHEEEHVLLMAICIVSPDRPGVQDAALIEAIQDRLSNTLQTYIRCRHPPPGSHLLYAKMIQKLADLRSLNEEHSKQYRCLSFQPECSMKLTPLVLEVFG
Description: Although previously used to study the effect of a cyclic azopeptide in its activated cis state, here we studied the target dynamics upon direct application of the light to the sample. To this aim, HDX-MS was applied for the characterization of the binding mode and modulation of receptor dynamics of the racemic compound PhotoVDRM. VDR-LBD was incubated alone (to provide an apo control for each experiment) or with an excess of compound PhotoVDRM and exposed to deuterium labeling for various periods of time, from 10 s to 2 h, in the dark and illuminated with light at 365 nm. […] As an additional control experiment, we also evaluated the HDX-MS of VDR-LBD in the presence and absence of a standard agonist, compound LSN2148936, in the dark and under illumination conditions. […] In order to permit direct comparison, including mathematical manipulation of the data in all these experiments, the observed deuterium incorporation percentages were converted to rate constants (expressed as −log10(k)) using our previously published Bayesian approach.
(Perkin Elmer, now Revvity, Cat.No. 6006290) in duplicate. Immediately, 54 µL of the protein solution were added and the plate was covered and incubated for 30 min at room temperature in the dark. Meanwhile, the plate with the 10X dilutions was illuminated at 365 nm for 3 min in a 96-well DED array plate (LEDA Teleopto), to allow the photoconversion of the molecules to their cis configuration. The illuminated compounds were mixed with the protein solution and incubated as described above for the plate in the dark. After the incubation time, the counts of both, the dark and illuminated plates, were measured in a Tecan Spark 20M Multimode plate reader with defined settings (excitation: 680 nm, emission: 520-620 nm, excitation time: 100ms, integration time: 300 ms). Biotinylated-His6 peptide (PerkinElmer) was used as a quality control reagent for AlphaScreen® assays and to evaluate compound interaction with the method. […] Dose-response curves and EC50 values were calculated with Graphpad software. […]

Structure (SMILES): Cc1cc(OCC(O)C(C)(C)C)ccc1N=Nc1cccc(-c2ccc(C(=O)O)cc2)c1 (stereo not drawn) [Compound 11b]
- effect on calcium homeostasis (serum total calcium) [1]: null impact; also recorded: without concomitant hypercalcemia
- protection to H/D exchange ([2]; in the dark, vs under light): much lower
- protection to H/D exchange ([2]; under 365 nm light, vs reference agonist LSN2148936): comparable
